Test results as given in patent US20120251619A1, “MicroRNA-29a,b,c as a Tumor Suppressor and Sensitizing Agent for Chemotherapy” (priority 2011, published 2012).
Entries after “also recorded” stand apart in the source; their conditions may differ.

Columns and labels:
Format in all cases: cell-based, human
HEYA8 cells = assay: Proliferation/viability under cisplatin treatment after miR-29a transfection; settings: HEYA8, miR-29a 72 h, cisplatin 0-7.5 μg/mL for 48 h, vs scrambled control at same cisplatin dosage
Protocol: (§1) FIGS. 6A-6B: Effect of miR-29a (72 h) on proliferation, under a range of concentrations of cisplatin treatment (at 48 h) of HEYA8 (FIG. 6A) and OVCAR-8 cells (FIG. 6B). Error bars are standard error. Proliferation curves of the parental HEYA8 strain treated with a scrambled control sequence and with microRNA mimics for miR-29a are shown.
(§2) The time course MTS assay experiments were run three times (separate days), each with a different set of biological quadruplicates (n=12 per group); within each experiment run, the viability measures within each time point were centered on the mean of the WT group for the first run. For cisplatin treatment, cells were transfected as described, and media was replaced after 24 hrs with media containing cisplatin (Sigma) (0-7.5 μg/mL). Viability was assayed 72 hrs post-transfection. Experiments were run three times, each with a different biological replicate (n=3 per group). For each run, viability measures within each concentration point were centered on the mean of values for the first run.

OVCAR-8 cells = assay: as above; settings: OVCAR-8, miR-29a 72 h, cisplatin 0-7.5 μg/mL for 48 h
Protocol: as §1, §2

CDC6 = assay: QPCR of gene target after miR-29a overexpression in HEYA8 cells; settings: HEYA8, forced miR-29a expression vs scrambled control and untreated
Protocol: (§3) FIG. 4: QPCR analysis showing relative quantity of selected miR-29a anti-correlated gene targets after miR29a overexpression in HEYA8 ovarian cancer cells (SCR, scrambled control; WT, untreated; two-sided t-test P<0.05, mir-29a vs SCR and miR-29a vs WT, each comparison, except for SAE1).
(§4) Total RNA (60 ng) was reverse transcribed in a 40 μl reaction using the TaqMan® MicroRNA Reverse Transcription Kit (ABI). QPCR was performed on a StepOne Real-Time PCR System (ABI) using Power-SYBR Green PCR Master Mix (ABI) in a 20 μl reaction and human ribosomal RNA 18s as an endogenous control (which was itself not miR-29a-regulated, data not shown). The QPCR experiments were run four times (separate days), each with independent biological samples (n=4 per group); within each experiment run, relative expression values were normalized to standard deviations from the mean.

DNMT3B = assay: as above; settings: HEYA8, forced miR-29a expression vs scrambled control and untreated
Protocol: as §3, §4

CBX1 = assay: as above; settings: HEYA8, forced miR-29a expression vs scrambled control and untreated
Protocol: as §3, §4

MYBL2 = assay: as above; settings: HEYA8, forced miR-29a expression vs scrambled control and untreated
Protocol: as §3, §4

DNMT3A = assay: as above; settings: HEYA8, forced miR-29a expression vs scrambled control and untreated
Protocol: as §3, §4

TIMELESS = assay: as above; settings: HEYA8, forced miR-29a expression vs scrambled control and untreated
Protocol: as §3, §4

SAE1 = assay: as above; settings: HEYA8, forced miR-29a expression vs scrambled control and untreated
Protocol: as §3, §4

[1] = tested on: OVCAR-8 cells (p53-deficient ovarian cancer); assay: MTS proliferation assay after transient transfection of miR-29a mimic; settings: OVCAR8, miR-29a mimic transiently transfected, vs parental strain and scrambled control, 48 h and 72 h
Protocol: (§5) For the in vitro evaluation of miR-29a on cell proliferation of ovarian cancer cells, microRNA mimics of miR-29a were transiently transfected into the p53-deficient ovarian cancer cell line OVCAR8 and the p53-wild type HEYA8 and the impact of this microRNA on cell proliferation was measured by increase in absorbance from the […].
as §2

[2] = tested on: HEYA8 cells (p53-wild type ovarian cancer); assay: as above; settings: HEYA8, miR-29a mimic transiently transfected, vs parental strain and scrambled control, 48 h and 72 h
Protocol: as §5, §2

For “miR-29a: microRNA mimic of miR-29a (5′-TAGCACCATCTGAAATCGGTTA-3′, SEQ ID NO: 13), transiently transfected into ovarian cancer cells (listed as DNA, chemistry not given here)”, the “effect on proliferation under cisplatin treatment” value (HEYA8 cells) was “suppress the proliferation of HEYA8 significantly more effectively than the scrambled control; also recorded: suppresses the proliferation of HEYA8 significantly more effectively than the scrambled control”, the “effect on proliferation under cisplatin treatment” value (OVCAR-8 cells) was “had an additional effect on chemotherapeutic agent cisplatin in inhibiting the growth” and the “relative quantity of CDC6 transcript (QPCR)” value (CDC6) was “repressed”. For the same substance, the “relative quantity of DNMT3B transcript (QPCR)” value (DNMT3B) was “repressed”, the “relative quantity of CBX1 transcript (QPCR)” value (CBX1) was “repressed” and the “relative quantity of MYBL2 transcript (QPCR)” value (MYBL2) was “repressed”. The “relative quantity of DNMT3A transcript (QPCR)” value (DNMT3A) was “repressed”, the “relative quantity of TIMELESS transcript (QPCR)” value (TIMELESS) was “repressed” and the “relative quantity of SAE1 transcript (QPCR)” value (SAE1) was “no functional repression”. For the same substance, the “effect on cell proliferation” value [1] was “moderately suppress cell proliferation” and the “effect on cell proliferation” value [2] was “very significantly suppress cell proliferation”.
